Reference: ChEMBL document CHEMBL1141566, “Synthesis and antitumor evaluation of bis aza-anthracene-9,10-diones and bis aza-anthrapyrazole-6-ones” (2008)

Assays:
Assay type in all cases: functional
HT-29 [1] = assay: Effect on apoptotic NOL3 gene expression in human HT29 cells after 6 hrs
HT-29 [2] = assay: Effect on proapoptotic BNIP3L gene expression in human HT29 cells after 12 hrs
HT-29 [3] = assay: Effect on apoptotic BIRC8 gene expression in human HT29 cells after 6 hrs
HT-29 [4] = assay: Effect on apoptosis in human HT29 PI+/AnnV+ cells after 6 hrs by biparametric flow cytometric analysis; settings: HT-29, 6 h, read-out: LC50 (the source's name)
HT-29 [5] = assay: Effect on proapoptotic BFAR gene expression in human HT29 cells after 12 hrs
HT-29 [6] = assay: Effect on apoptotic AKT1 gene expression in human HT29 cells after 12 hrs
HT-29 [7] = assay: Effect on proapoptotic CASP7 gene expression in human HT29 cells after 6 hrs
HT-29 [8] = assay: Effect on proapoptotic BNIP1 gene expression in human HT29 cells after 6 hrs
HT-29 [9] = assay: Effect on apoptotic IGF1R gene expression in human HT29 cells after 6 hrs
HT-29 [10] = assay: Effect on apoptotic IGF1R gene expression in human HT29 cells after 12 hrs
HT-29 [11] = assay: Effect on apoptotic BIRC6 gene expression in human HT29 cells after 6 hrs
HT-29 [12] = assay: Effect on proapoptotic CASP9 gene expression in human HT29 cells after 6 hrs
HT-29 [13] = assay: Effect on apoptotic BIRC3 gene expression in human HT29 cells after 12 hrs
HT-29 [14] = assay: Effect on apoptotic MCL1 gene expression in human HT29 cells after 12 hrs
HT-29 [15] = assay: Effect on apoptosis in human HT29 PI+/AnnV- cells after 24 hrs by biparametric flow cytometric analysis; settings: HT-29, 24 h, read-out: LC50 (the source's name)
HT-29 [16] = assay: Effect on apoptotic BCL2L10 gene expression in human HT29 cells after 6 hrs
HT-29 [17] = assay: Effect on apoptosis in human HT29 PI-/AnnV- cells after 6 hrs by biparametric flow cytometric analysis; settings: HT-29, 6 h, read-out: LC50 (the source's name)
HT-29 [18] = assay: Effect on proapoptotic CARD6 gene expression in human HT29 cells after 12 hrs
HT-29 [19] = assay: Effect on apoptotic CFLAR gene expression in human HT29 cells after 6 hrs
HT-29 [20] = assay: Effect on apoptosis in human HT29 PI+/AnnV- cells after 6 hrs by biparametric flow cytometric analysis; settings: HT-29, 6 h, read-out: LC50 (the source's name)
HT-29 [21] = assay: Effect on apoptotic BAG1 gene expression in human HT29 cells after 6 hrs
HT-29 [22] = assay: Effect on proapoptotic CIDEB gene expression in human HT29 cells after 6 hrs
HT-29 [23] = assay: Effect on apoptotic BAG4 gene expression in human HT29 cells after 6 hrs
HT-29 [24] = assay: Effect on proapoptotic NOD1 gene expression in human HT29 cells after 6 hrs
HT-29 [25] = assay: Effect on apoptotic NOL3 gene expression in human HT29 cells after 12 hrs
HT-29 [26] = assay: Effect on apoptotic BCL10 gene expression in human HT29 cells after 12 hrs
HT-29 [27] = assay: Effect on proapoptotic TNFRSF10A gene expression in human HT29 cells after 6 hrs
HT-29 [28] = assay: Effect on apoptosis in human HT29 PI+/AnnV+ cells after 24 hrs by biparametric flow cytometric analysis; settings: HT-29, 24 h, read-out: LC50 (the source's name)
HT-29 [29] = assay: Effect on proapoptotic LTBR gene expression in human HT29 cells after 6 hrs
HT-29 [30] = assay: Effect on apoptotic GADD45A gene expression in human HT29 cells after 6 hrs
HT-29 [31] = assay: Effect on apoptotic BAG4 gene expression in human HT29 cells after 12 hrs
HT-29 [32] = assay: Effect on apoptosis in human HT29 PI-/AnnV+ cells after 24 hrs by biparametric flow cytometric analysis; settings: HT-29, 24 h, read-out: LC50 (the source's name)
HT-29 [33] = assay: Effect on apoptotic BRAF gene expression in human HT29 cells after 12 hrs
HT-29 [34] = assay: Cytotoxicity against human HT29 cells after 72 hrs; settings: HT-29, 72 h
HT-29 [35] = assay: Effect on proapoptotic CARD8 gene expression in human HT29 cells after 6 hrs
HT-29 [36] = assay: Effect on proapoptotic BCL2L11 gene expression in human HT29 cells after 6 hrs
HT-29 [37] = assay: Effect on proapoptotic BNIP3L gene expression in human HT29 cells after 6 hrs
HT-29 [38] = assay: Effect on proapoptotic CARD6 gene expression in human HT29 cells after 6 hrs
HT-29 [39] = assay: Effect on apoptosis in human HT29 PI-/AnnV+ cells after 6 hrs by biparametric flow cytometric analysis; settings: HT-29, 6 h, read-out: LC50 (the source's name)
HT-29 [40] = assay: Effect on apoptotic MCL1 gene expression in human HT29 cells after 6 hrs
HT-29 [41] = assay: Effect on apoptosis in human HT29 PI-/AnnV+ cells after 12 hrs by biparametric flow cytometric analysis; settings: HT-29, 12 h, read-out: LC50 (the source's name)
HT-29 [42] = assay: Effect on apoptosis in human HT29 PI+/AnnV+ cells after 12 hrs by biparametric flow cytometric analysis; settings: HT-29, 12 h, read-out: LC50 (the source's name)
HT-29 [43] = assay: Effect on proapoptotic BAK1 gene expression in human HT29 cells after 12 hrs
HT-29 [44] = assay: Effect on proapoptotic CIDEB gene expression in human HT29 cells after 12 hrs
HT-29 [45] = assay: Effect on proapoptotic BAX gene expression in human HT29 cells after 6 hrs
HT-29 [46] = assay: Effect on proapoptotic BCLAF1 gene expression in human HT29 cells after 12 hrs
HT-29 [47] = assay: Effect on apoptotic CFLAR gene expression in human HT29 cells after 12 hrs
HT-29 [48] = assay: Effect on proapoptotic TNFRSF10A gene expression in human HT29 cells after 12 hrs
HT-29 [49] = assay: Effect on apoptosis in human HT29 PI-/AnnV- cells after 12 hrs by biparametric flow cytometric analysis; settings: HT-29, 12 h, read-out: LC50 (the source's name)
HT-29 [50] = assay: Effect on proapoptotic BCL2 gene expression in human HT29 cells after 6 hrs
HT-29 [51] = assay: Effect on proapoptotic TNFRSF10B gene expression in human HT29 cells after 12 hrs
HT-29 [52] = assay: Effect on apoptosis in human HT29 PI-/AnnV- cells after 24 hrs by biparametric flow cytometric analysis; settings: HT-29, 24 h, read-out: LC50 (the source's name)
HT-29 [53] = assay: Effect on apoptosis in human HT29 PI+/AnnV- cells after 12 hrs by biparametric flow cytometric analysis; settings: HT-29, 12 h, read-out: LC50 (the source's name)
HT-29 [54] = assay: Effect on apoptotic BCL2L1 gene expression in human HT29 cells after 6 hrs
HT-29 [55] = assay: Effect on proapoptotic BAX gene expression in human HT29 cells after 12 hrs
HT-29 [56] = assay: Effect on proapoptotic BAK1 gene expression in human HT29 cells after 6 hrs
HT-29 [57] = assay: Effect on proapoptotic BFAR gene expression in human HT29 cells after 6 hrs
HT-29 [58] = assay: Effect on proapoptotic LTBR gene expression in human HT29 cells after 12 hrs
HT-29 [59] = assay: Effect on apoptotic BIRC8 gene expression in human HT29 cells after 12 hrs

CN(C)CCn1nc2c3c(c(NCCCN(C)CCCNc4ccc5c6c(nn5CCN(C)C)-c5cnccc5C(=O)c46)ccc31)C(=O)c1ccncc1-2
Fold change (HT-29 [1]): -2.5 | Fold change (HT-29 [2]): 3.6 | Fold change (HT-29 [3]): -5.6 | CC50 (HT-29 [4]): 1.8 µM | Fold change (HT-29 [5]): -2.5 | Fold change (HT-29 [6]): -6.3 | Fold change (HT-29 [7]): 5.6 | Fold change (HT-29 [8]): 3 | Fold change (HT-29 [9]): -38.5 | Fold change (HT-29 [10]): -4 | Fold change (HT-29 [11]): -2.6 | Fold change (HT-29 [12]): 2.2 | Fold change (HT-29 [13]): -6.3 | Fold change (HT-29 [14]): -2.7 | CC50 (HT-29 [15]): 7.2 µM | Fold change (HT-29 [16]): 2.2 | CC50 (HT-29 [17]): 72.5 µM | Fold change (HT-29 [18]): -6.7 | Fold change (HT-29 [19]): -2.2 | CC50 (HT-29 [20]): 3.4 µM | Fold change (HT-29 [21]): -2.5 | Fold change (HT-29 [22]): 8.3 | Fold change (HT-29 [23]): -7 | Fold change (HT-29 [24]): 4.2 | Fold change (HT-29 [25]): -3.8 | Fold change (HT-29 [26]): -2.2 | Fold change (HT-29 [27]): -2.5 | CC50 (HT-29 [28]): 22.2 µM | Fold change (HT-29 [29]): -5.3 | Fold change (HT-29 [30]): 8.8 | Fold change (HT-29 [31]): -3.3 | CC50 (HT-29 [32]): 62.3 µM | Fold change (HT-29 [33]): -9.1 | GI50 (HT-29 [34]): 0.00036 µM | LC50 (concentration killing 50% of cells) (HT-29 [34]): 9.8 µM | TGI (HT-29 [34]): 1.3 µM | Fold change (HT-29 [35]): 4 | Fold change (HT-29 [36]): 7.7 | Fold change (HT-29 [37]): 7.4 | Fold change (HT-29 [38]): -2.7 | CC50 (HT-29 [39]): 22.3 µM | Fold change (HT-29 [40]): -5 | CC50 (HT-29 [41]): 32.4 µM | CC50 (HT-29 [42]): 3.4 µM | Fold change (HT-29 [43]): 4.1 | Fold change (HT-29 [44]): 2.4 | Fold change (HT-29 [45]): 4.1 | Fold change (HT-29 [46]): 136 | Fold change (HT-29 [47]): -3.3 | Fold change (HT-29 [48]): -5.9 | CC50 (HT-29 [49]): 60 µM | Fold change (HT-29 [50]): -2.8 | Fold change (HT-29 [51]): -4.3 | CC50 (HT-29 [52]): 8.3 µM | CC50 (HT-29 [53]): 4.2 µM | Fold change (HT-29 [54]): 1.2 | Fold change (HT-29 [55]): 1.3 | Fold change (HT-29 [56]): 4.5 | Fold change (HT-29 [57]): -7 | Fold change (HT-29 [58]): -4.3 | Fold change (HT-29 [59]): -33.3
